# Test results as given in publication PMC12837263, “β,β-Dimethylacrylalkannin Restores Colistin Efficacy Against mcr- and TCS-Mediated Resistant Gram-Negative Bacteria via Membrane Disturbance” (Antibiotics, 2025).
# What was measured:
# [1] = design: method as in PMID 31882661; details: cited from earlier work
# E. coli 13f4(mcr-1) = assay: Checkerboard assay (MIC, FICI); type: cell-based; details: E. coli 13f4 (mcr-1); antibiotic + β,β-Dim
# Experimental: (§1) The FICI of β,β-Dim–colistin combination was determined by a checkerboard assay. Briefly, two-fold serial dilutions of β,β-Dim and colistin were prepared in a 96-well plate. After incubation at 37 °C for 18 h with bacterial suspension (10^6 CFU/mL), OD600 values were measured. FICI = (MICβ,β-Dim in combination/MICβ,β-Dim) + (MICcolistin in combination/MICcolistin). The synergistic effect of β,β-Dim with other antibiotics was measured in the same way. Synergy was considered to be an FICI ≤ 0.5.
# [2] = tested on: K. pneumoniae 667(phoP、pmrA、blaKPC); assay: Checkerboard assay (MIC, FICI); type: cell-based; details: K. pneumoniae 667 (phoP, pmrA); antibiotic + β,β-Dim
# Experimental: as §1
smiles,measurement,setting,value
"N#CC(C#N)=NNc1cccc(Cl)c1 [CCCP, carbonyl cyanide 3-chloro phenyl hydrazone]",reduction of colistin MIC by combination with CCCP,[1],approximately 8 fold
CC1(C)S[C@@H]2[C@H](NC(=O)[C@H](N)c3ccccc3)C(=O)N2[C@H]1C(=O)O [ampicillin],"FICI of β,β-Dim combined with the antibiotic",E. coli 13f4(mcr-1),> 1
same,"FICI of β,β-Dim combined with the antibiotic",[2],> 1
O=C(O)c1cn(C2CC2)c2cc(N3CCNCC3)c(F)cc2c1=O [ciprofloxacin],"FICI of β,β-Dim combined with the antibiotic",E. coli 13f4(mcr-1),> 1
same,"FICI of β,β-Dim combined with the antibiotic",[2],> 1
C[C@H]1c2cccc(O)c2C(=O)C2=C(O)[C@]3(O)C(=O)C(C(N)=O)=C(O)[C@@H](N(C)C)[C@@H]3[C@@H](O)[C@@H]21 [doxycycline],"FICI of β,β-Dim combined with the antibiotic",E. coli 13f4(mcr-1),> 1
same,"FICI of β,β-Dim combined with the antibiotic",[2],> 1
CS(=O)(=O)c1ccc([C@@H](O)[C@@H](CF)NC(=O)C(Cl)Cl)cc1 [florfenicol],"FICI of β,β-Dim combined with the antibiotic",E. coli 13f4(mcr-1),> 1
same,"FICI of β,β-Dim combined with the antibiotic",[2],> 1
CNC(C)C1CCC(N)C(OC2C(N)CC(N)C(OC3OCC(C)(O)C(NC)C3O)C2O)O1 (stereo not drawn) [gentamicin],"FICI of β,β-Dim combined with the antibiotic",E. coli 13f4(mcr-1),> 1
same,"FICI of β,β-Dim combined with the antibiotic",[2],> 1
CO[C@H]1/C=C/O[C@@]2(C)Oc3c(C)c(O)c4c(O)c(c(/C=N/N5CCN(C)CC5)c(O)c4c3C2=O)NC(=O)/C(C)=C\C=C\[C@H](C)[C@H](O)[C@@H](C)[C@@H](O)[C@@H](C)[C@H](OC(C)=O)[C@@H]1C [rifampicin],"FICI of β,β-Dim combined with the antibiotic",E. coli 13f4(mcr-1),> 1
same,"FICI of β,β-Dim combined with the antibiotic",[2],> 1
CC[C@H]1OC(=O)C[C@@H](O)[C@H](C)[C@@H](O[C@@H]2O[C@H](C)[C@@H](O[C@H]3C[C@@](C)(O)[C@@H](O)[C@H](C)O3)[C@H](N(C)C)[C@H]2O)[C@@H](CC=O)C[C@@H](C)C(=O)/C=C/C(C)=C/[C@@H]1CO[C@@H]1O[C@H](C)[C@@H](O)[C@@H](OC)[C@H]1OC [tylosin],"FICI of β,β-Dim combined with the antibiotic",E. coli 13f4(mcr-1),> 1
same,"FICI of β,β-Dim combined with the antibiotic",[2],> 1
